Source: patent US20150087627A1, “COMBINATION OF KINASE INHIBITORS AND USES THEREOF” (Intellikine LLC, priority 2011, published 2015)
pIC50: −log10 of the molar value.

What was measured:
Assay type in all cases: biochemical
PI3K β (p110β/p85α) = target: T1, PI3K β (p110β/p85α) (Homo sapiens, UniProt P42338); assay: PI 3-Kinase (human) HTRF assay, PI3K β; details: read-out: PI3K β IC50
T1 construct: purchased Upstate / Millipore Corporation

PI3K δ = target: T2, PI3K δ (Homo sapiens, UniProt O00329); assay: PI 3-Kinase (human) HTRF assay, PI3K δ; details: read-out: PI3K δ IC50
T2 construct: purchased Upstate / Millipore Corporation
T2 sequence (O00329 whole entry): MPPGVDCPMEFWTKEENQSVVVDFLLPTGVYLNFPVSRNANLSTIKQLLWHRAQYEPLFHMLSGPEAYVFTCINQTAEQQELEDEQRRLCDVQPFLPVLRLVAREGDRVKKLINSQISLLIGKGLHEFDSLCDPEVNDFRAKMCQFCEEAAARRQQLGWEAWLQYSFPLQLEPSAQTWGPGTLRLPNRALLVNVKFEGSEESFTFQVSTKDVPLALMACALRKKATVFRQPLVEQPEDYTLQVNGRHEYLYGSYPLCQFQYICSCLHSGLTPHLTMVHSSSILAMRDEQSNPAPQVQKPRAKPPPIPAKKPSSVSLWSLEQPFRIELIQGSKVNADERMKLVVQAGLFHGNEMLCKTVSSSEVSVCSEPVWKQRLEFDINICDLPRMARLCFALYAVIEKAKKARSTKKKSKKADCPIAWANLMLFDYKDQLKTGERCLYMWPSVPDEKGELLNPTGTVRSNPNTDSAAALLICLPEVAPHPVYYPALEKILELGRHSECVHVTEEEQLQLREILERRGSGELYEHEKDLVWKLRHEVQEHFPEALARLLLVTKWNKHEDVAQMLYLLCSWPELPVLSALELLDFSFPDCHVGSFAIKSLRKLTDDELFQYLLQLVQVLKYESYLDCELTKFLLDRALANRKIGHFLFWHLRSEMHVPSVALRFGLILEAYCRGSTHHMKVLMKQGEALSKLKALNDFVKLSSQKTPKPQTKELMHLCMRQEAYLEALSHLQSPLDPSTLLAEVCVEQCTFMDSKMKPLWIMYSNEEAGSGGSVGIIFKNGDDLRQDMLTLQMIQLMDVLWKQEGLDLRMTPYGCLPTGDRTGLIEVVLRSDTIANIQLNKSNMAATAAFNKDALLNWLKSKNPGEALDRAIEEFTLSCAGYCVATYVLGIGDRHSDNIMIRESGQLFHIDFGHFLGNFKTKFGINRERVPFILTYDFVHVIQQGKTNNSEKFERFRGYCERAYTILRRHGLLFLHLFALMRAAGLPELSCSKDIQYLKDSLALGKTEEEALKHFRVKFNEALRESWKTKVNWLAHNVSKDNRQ
T2 sequence (P27986 whole entry partner): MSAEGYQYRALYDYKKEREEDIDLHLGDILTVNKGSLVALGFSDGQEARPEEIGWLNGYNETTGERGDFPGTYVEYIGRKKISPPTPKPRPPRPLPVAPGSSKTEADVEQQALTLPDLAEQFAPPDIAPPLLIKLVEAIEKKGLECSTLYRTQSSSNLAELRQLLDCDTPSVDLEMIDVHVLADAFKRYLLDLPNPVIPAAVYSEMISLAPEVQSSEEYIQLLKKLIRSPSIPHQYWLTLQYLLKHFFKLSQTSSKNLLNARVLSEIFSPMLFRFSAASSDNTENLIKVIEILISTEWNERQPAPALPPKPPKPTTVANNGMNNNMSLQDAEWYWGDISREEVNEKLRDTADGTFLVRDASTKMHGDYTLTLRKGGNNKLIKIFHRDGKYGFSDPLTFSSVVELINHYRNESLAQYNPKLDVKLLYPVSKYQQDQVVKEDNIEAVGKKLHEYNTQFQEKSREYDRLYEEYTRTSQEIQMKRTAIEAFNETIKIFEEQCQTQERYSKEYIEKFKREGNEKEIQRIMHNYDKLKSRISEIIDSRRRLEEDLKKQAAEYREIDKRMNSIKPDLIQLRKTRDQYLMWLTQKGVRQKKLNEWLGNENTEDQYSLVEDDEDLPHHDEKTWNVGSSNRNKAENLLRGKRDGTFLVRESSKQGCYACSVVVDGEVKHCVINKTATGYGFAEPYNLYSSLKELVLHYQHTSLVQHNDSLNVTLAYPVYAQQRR

PI3K α (p110α/p85α) = target: T3, PI3K α (p110α/p85α) (Homo sapiens, UniProt P42336); assay: PI 3-Kinase (human) HTRF assay, PI3K α; details: read-out: PI3K α IC50
T3 construct: purchased Upstate / Millipore Corporation
T3 sequence (P42336 whole entry): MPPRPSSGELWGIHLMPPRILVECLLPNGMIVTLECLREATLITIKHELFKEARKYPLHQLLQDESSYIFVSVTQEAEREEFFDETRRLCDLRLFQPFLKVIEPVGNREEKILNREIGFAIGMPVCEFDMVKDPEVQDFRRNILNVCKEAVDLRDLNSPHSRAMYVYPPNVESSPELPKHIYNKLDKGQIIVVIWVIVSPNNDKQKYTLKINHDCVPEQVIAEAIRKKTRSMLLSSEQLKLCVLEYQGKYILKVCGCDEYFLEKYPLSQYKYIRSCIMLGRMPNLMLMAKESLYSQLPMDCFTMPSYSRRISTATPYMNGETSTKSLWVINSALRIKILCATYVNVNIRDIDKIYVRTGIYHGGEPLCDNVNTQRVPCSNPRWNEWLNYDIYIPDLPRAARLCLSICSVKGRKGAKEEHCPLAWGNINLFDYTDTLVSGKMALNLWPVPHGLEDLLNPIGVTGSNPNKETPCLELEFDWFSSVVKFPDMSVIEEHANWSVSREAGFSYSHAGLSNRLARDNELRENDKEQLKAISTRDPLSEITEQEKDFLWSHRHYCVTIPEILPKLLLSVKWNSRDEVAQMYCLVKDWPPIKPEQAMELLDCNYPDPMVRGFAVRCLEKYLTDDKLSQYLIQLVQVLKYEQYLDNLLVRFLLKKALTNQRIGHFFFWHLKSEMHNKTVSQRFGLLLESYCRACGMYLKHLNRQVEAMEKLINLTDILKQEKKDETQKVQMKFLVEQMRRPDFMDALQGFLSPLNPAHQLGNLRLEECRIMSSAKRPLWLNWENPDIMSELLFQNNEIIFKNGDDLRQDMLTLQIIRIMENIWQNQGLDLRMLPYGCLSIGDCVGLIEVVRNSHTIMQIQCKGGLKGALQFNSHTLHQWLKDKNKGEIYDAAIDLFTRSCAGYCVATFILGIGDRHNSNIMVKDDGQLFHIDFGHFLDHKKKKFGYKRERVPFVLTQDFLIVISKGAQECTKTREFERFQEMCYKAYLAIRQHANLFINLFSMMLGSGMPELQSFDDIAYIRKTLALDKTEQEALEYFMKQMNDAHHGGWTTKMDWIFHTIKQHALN
T3 sequence (P27986 whole entry partner): as the sequence (P27986 whole entry partner) above

PI3K γ (p110γ) = target: T4, PI3K γ (p110γ) (Homo sapiens, UniProt P48736); assay: PI 3-Kinase (human) HTRF assay, PI3K γ; details: read-out: PI3K γ IC50
T4 construct: purchased Upstate / Millipore Corporation
T4 sequence (P48736 whole entry): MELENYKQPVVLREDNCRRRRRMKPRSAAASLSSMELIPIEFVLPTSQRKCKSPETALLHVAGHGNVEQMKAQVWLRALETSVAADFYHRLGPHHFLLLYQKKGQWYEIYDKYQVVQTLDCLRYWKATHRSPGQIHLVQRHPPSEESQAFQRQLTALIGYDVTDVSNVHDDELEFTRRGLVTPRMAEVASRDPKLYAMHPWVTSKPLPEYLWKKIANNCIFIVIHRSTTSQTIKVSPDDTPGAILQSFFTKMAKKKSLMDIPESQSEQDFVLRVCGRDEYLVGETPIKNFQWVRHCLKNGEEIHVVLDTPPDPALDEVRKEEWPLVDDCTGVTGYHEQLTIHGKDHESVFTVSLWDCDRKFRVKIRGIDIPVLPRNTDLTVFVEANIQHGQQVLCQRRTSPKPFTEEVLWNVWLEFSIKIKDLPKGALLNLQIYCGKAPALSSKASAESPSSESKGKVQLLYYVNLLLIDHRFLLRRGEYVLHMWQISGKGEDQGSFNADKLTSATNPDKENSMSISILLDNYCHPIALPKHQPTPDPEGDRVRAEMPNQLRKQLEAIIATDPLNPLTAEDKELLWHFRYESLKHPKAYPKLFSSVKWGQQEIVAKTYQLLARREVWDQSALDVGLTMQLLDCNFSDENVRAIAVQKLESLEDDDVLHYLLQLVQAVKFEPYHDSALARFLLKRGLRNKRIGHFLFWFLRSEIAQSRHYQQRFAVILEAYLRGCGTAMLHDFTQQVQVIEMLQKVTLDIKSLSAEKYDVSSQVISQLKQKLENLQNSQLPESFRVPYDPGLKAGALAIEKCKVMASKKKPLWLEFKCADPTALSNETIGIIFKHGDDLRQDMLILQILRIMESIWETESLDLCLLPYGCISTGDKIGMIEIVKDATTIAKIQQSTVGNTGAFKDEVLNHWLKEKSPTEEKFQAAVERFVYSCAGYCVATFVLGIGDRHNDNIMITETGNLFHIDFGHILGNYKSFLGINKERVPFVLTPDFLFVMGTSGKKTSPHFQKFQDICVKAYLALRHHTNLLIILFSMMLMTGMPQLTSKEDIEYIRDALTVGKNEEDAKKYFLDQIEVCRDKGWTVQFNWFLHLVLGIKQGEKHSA

T1 sequence (P42338 whole entry): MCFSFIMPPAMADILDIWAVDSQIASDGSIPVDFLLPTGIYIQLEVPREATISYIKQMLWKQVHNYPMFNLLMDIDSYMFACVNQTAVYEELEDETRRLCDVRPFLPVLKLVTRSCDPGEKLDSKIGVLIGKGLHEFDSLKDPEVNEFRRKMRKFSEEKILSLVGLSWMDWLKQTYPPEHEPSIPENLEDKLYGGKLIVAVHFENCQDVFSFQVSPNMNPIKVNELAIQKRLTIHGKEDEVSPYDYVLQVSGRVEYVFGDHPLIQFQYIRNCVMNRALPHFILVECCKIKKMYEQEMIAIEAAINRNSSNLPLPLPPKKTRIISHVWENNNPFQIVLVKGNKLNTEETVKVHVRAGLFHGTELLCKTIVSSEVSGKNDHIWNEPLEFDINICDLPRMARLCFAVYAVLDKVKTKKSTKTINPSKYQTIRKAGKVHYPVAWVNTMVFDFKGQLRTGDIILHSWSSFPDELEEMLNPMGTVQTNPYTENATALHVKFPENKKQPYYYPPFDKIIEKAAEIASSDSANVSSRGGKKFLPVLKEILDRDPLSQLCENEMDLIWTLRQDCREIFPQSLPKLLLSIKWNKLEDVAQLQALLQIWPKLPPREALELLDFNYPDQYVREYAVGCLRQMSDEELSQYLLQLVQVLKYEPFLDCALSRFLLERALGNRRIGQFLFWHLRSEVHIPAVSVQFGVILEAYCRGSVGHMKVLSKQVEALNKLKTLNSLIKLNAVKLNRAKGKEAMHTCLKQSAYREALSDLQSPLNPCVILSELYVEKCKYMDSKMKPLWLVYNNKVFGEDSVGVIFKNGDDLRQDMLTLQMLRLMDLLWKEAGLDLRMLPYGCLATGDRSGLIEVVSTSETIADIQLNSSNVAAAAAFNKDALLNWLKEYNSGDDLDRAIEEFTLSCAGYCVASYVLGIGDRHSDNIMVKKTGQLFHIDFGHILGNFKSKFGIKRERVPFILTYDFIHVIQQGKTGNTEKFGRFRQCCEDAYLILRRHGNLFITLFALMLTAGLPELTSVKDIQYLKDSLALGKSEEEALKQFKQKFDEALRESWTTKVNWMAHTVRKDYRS
T1 sequence (P27986 whole entry partner): as the sequence (P27986 whole entry partner) above

| SMILES | pIC50 (PI3K β (p110β/p85α)) | pIC50 (PI3K δ) | pIC50 (PI3K α (p110α/p85α)) | pIC50 (PI3K γ (p110γ)) |
| --- | --- | --- | --- | --- |
| Nc1nc2cc(-c3ccc4ncc(C(=O)N(CCO)CCO)n4c3)ccc2o1 [Compound 316] | > 5.00 | < 5.00 | > 6.00 | > 5.00 |
| Nc1nc2cc(-c3ccc4ncn(C(=O)N5CCOCC5)c4c3)ccc2o1 [Compound 317] | < 5.00 | < 5.00 | < 5.00 | < 5.00 |
| Nc1nc2cc(-c3ccc4ncc(N5CC(n6ccnc6)C5)nc4c3)ccc2o1 [Compound 319] | > 6.00 | > 5.00 | > 7.00 | > 6.00 |
| Nc1nc2cc(-c3ccc4ncc(N5CC(N6CCS(=O)(=O)CC6)C5)nc4c3)ccc2o1 [Compound 334] | > 5.00 | > 5.00 | > 7.00 | > 5.00 |
| Nc1nc2cc(-c3ccc4ncc(N5CCC(n6cccn6)CC5)nc4c3)ccc2o1 [Compound 337] | < 5.00 | < 5.00 | > 7.00 | > 6.00 |
| Cc1cn(C2CCN(c3cnc4ccc(-c5ccc6oc(N)nc6c5)cc4n3)CC2)cn1 [Compound 338] | > 5.00 | > 5.00 | > 7.00 | > 5.00 |
| Cc1cn(C2CN(c3cnc4ccc(-c5ccc6oc(N)nc6c5)cc4n3)C2)cn1 [Compound 339] | > 6.00 | > 6.00 | > 7.00 | > 6.00 |
| Nc1nc2cc(-c3ccc4ncc(C(=O)N5CC5)n4c3)ccc2o1 [Compound 340] | < 5.00 | < 5.00 | > 6.00 | > 6.00 |
| Nc1nc2cc(-c3ccc4ncc(N5CC(N6CCC(O)CC6)C5)nc4c3)ccc2o1 [Compound 341] | < 5.00 | > 5.00 | > 6.00 | > 5.00 |
| Cc1nccn1C1CCN(c2cnc3ccc(-c4ccc5oc(N)nc5c4)cc3n2)CC1 [Compound 344] | > 5.00 | > 6.00 | > 7.00 | > 5.00 |
| Nc1nc2cc(-c3ccn4ncc(C(=O)N5CCOCC5)c4c3)ccc2o1 [Compound 347] | > 5.00 | < 5.00 | > 6.00 | > 6.00 |
| Cc1cc2oc(N)nc2cc1-c1ccc2ncc(N3CCN[C@@H](C)C3)nc2c1 [Compound 351] | > 6.00 | < 5.00 | > 5.00 | < 5.00 |
| C[C@@H]1CN(C2CN(c3cnc4ccc(-c5ccc6oc(N)nc6c5)cc4n3)C2)CCN1 [Compound 355] | > 5.00 | > 6.00 | > 7.00 | > 5.00 |
| Nc1nc2cc(-c3ccn4ncc(-c5ccncc5)c4c3)ccc2o1 [Compound 356] | > 7.00 | > 7.00 | > 7.00 | > 7.00 |
| Nc1nc2cc(-c3ccc4ncc(C(=O)N5CCOCC5)n4c3)cc(Cl)c2o1 [Compound 359] | > 6.00 | > 5.00 | > 7.00 | > 7.00 |
| Nc1nc2cc(-c3ccc4ncc(C(=O)N5CCOCC5)n4c3)cc(F)c2o1 [Compound 360] | > 6.00 | > 5.00 | > 7.00 | > 7.00 |
| Nc1nc2cc(-c3ccc4ncc(N5CC(N6CCOCC6)C5)nc4c3)cc(F)c2o1 [Compound 361] | > 6.00 | > 5.00 | > 7.00 | > 6.00 |
| Cc1c(-c2ccc3ncc(N4CC(N5CCOCC5)C4)nc3c2)ccc2oc(N)nc12 [Compound 362] | < 5.00 | < 5.00 | < 5.00 | < 5.00 |
| C[C@H]1CN(c2cnc3ccc(-c4cccc5c(N)noc45)cc3n2)CCN1 [Compound 363] | < 5.00 | < 5.00 | < 5.00 | < 5.00 |
| Cc1cc(-c2ccc3ncc(C(=O)N4CCOCC4)n3c2)cc2nc(N)oc12 [Compound 364] | > 5.00 | < 5.00 | > 6.00 | > 6.00 |

| SMILES | pIC50 (PI3K β (p110β/p85α)) | pIC50 (PI3K δ) | pIC50 (PI3K α (p110α/p85α)) | pIC50 (PI3K γ (p110γ)) |
| --- | --- | --- | --- | --- |
| Cc1cc(-c2ccc3ncc(N4CC(N5CCOCC5)C4)nc3c2)cc2nc(N)oc12 [Compound 365] | > 5.00 | > 5.00 | > 5.00 | > 5.00 |
| CN(C)C1CN(c2cnc3ccc(-c4ccc5oc(N)nc5c4)cc3n2)C1 [Compound 366] | > 5.00 | < 5.00 | > 7.00 | > 5.00 |
| Nc1nc2cc(-c3ccc4ncc(N5CC(N)C5)nc4c3)ccc2o1 [Compound 367] | > 6.00 | > 5.00 | > 6.00 | > 6.00 |
| Cc1cc(-c2ccc3oc(N)nc3c2)cc2c(C(=O)N3CCCC3)cnn12 [Compound 368] | > 5.00 | > 6.00 | > 7.00 | > 6.00 |
| Cc1c(-c2ccc3ncc(C(=O)N4CCOCC4)n3c2)ccc2oc(N)nc12 [Compound 369] | < 5.00 | < 5.00 | < 5.00 | < 5.00 |
| Nc1nc2cc(-c3ccc4ncc(N5CC(N6CCOCC6)C5)nc4c3)c(Cl)cc2o1 [Compound 371] | > 5.00 | < 5.00 | > 6.00 | < 5.00 |
| Cc1c(-c2ccc3oc(N)nc3c2)ccc2ncc(N3CCN[C@@H](C)C3)nc12 [Compound 374] | > 7.00 | > 5.00 | > 6.00 | < 5.00 |
| Nc1nc2cc(-c3ccc4ncc(N5CC[C@H](N6CCOCC6)C5)nc4c3)ccc2o1 [Compound 375] | > 5.00 | > 6.00 | > 6.00 | > 6.00 |
| CN1CCN(C(=O)c2cnn3ccc(-c4ccc5oc(N)nc5c4)cc23)CC1 [Compound 380] | > 5.00 | < 5.00 | > 6.00 | > 5.00 |
| Cc1c(-c2ccc3oc(N)nc3c2)ccc2ncc(N3CC(N4CCOCC4)C3)nc12 [Compound 383] | < 5.00 | < 5.00 | > 6.00 | < 5.00 |
| CN1CCC(c2cnc3ccc(-c4ccc5oc(N)nc5c4)cc3n2)CC1 [Compound 385] | > 5.00 | < 5.00 | > 7.00 | < 5.00 |
| Nc1nc2cc(-c3ccc4ncc(N5CCNCC5=O)nc4c3)ccc2o1 [Compound 389] | < 5.00 | < 5.00 | > 6.00 | > 5.00 |
| CCN1CCN(c2cnc3ccc(-c4ccc5oc(N)nc5c4)cc3n2)C(=O)C1 [Compound 391] | < 5.00 | < 5.00 | > 5.00 | < 5.00 |
| CC(C)N1CCN(c2cnc3ccc(-c4ccc5oc(N)nc5c4)cc3n2)C(=O)C1 [Compound 392] | < 5.00 | < 5.00 | < 5.00 | < 5.00 |
| Nc1nc2cc(-c3ccc4ncc(N5CCN(CC6CC6)CC5=O)nc4c3)ccc2o1 [Compound 393] | < 5.00 | < 5.00 | > 5.00 | < 5.00 |
| Nc1nc2cc(-c3ccc4ncc(N5CCn6cncc6C5)nc4c3)ccc2o1 [Compound 394] | > 7.00 | > 6.00 | > 7.00 | > 7.00 |
| Nc1nc2cc(-c3ccc4ncc(N5CCN(CC(F)(F)F)CC5)nc4c3)ccc2o1 [Compound 395] | < 5.00 | < 5.00 | > 7.00 | > 7.00 |
| C[C@H]1CN(c2cnc3ccc(-c4ccc5oc(N)nc5c4)cc3c2)CCN1 [Compound 396] | > 7.00 | < 5.00 | > 7.00 | > 5.00 |
| Cc1cc(-c2ccc3oc(N)nc3c2)cc2c(-c3ccncc3)cnn12 [Compound 397] | > 6.00 | > 6.00 | > 7.00 | > 7.00 |
